Test results as given in patent US12653860B2, “Compositions and methods for editing beta-globin for treatment of hemaglobinopathies” (Vertex Pharmaceuticals Incorporated, priority 2019, dated 2026).
“Also recorded” adds a separate entry of the source.

Key:
HBB locus = test: HDR (E7V) editing in mouse bone marrow 16 weeks post-administration, NGS; type: in vivo, mice; details: for levels of gene-editing in the HBB locus in bone marrow: AAV.304, FIG. 26B
Method: Maintenance of gene-editing was evaluated in mouse bone marrow collected at 16 weeks post-administration of LT-HSPCs. Incorporation of a sickle mutation (E7V) in the HBB locus was evaluated in DNA isolated from mouse bone marrow samples using the next generation sequencing assay described in Example 4. Shown in FIG. 19 is a comparison of HDR efficiency for LT-HSPCs edited either with or without i53. LT-HSPCs were electroporated with Cas9/gRNA and treated with AAV. […] LT-HSPCs edited in the presence of i53 had 1.8-fold higher HDR frequency in the bone marrow compared to cells edited with AAV+RNP alone.
Maintenance of gene-editing was evaluated in mouse bone marrow collected at 16 weeks post-administration of LT-HSPCs. Incorporation of a sickle mutation (E7V) in the HBB locus was evaluated in DNA isolated from mouse bone marrow samples using the next generation sequencing assay described in Example 4. […] LT-HSPCs were electroporated with Cas9/gRNA and treated with AAV prior to electroporation or following electroporation. Incorporation of the gene-edit in bone marrow samples was similar for LT-HSPCs edited with RNP and AAV given either pre-EP or post-EP. Additionally, incorporation of the gene edit in the HBB locus by HDR was compared for LT-HSPCs edited in the presence of i53 or Nu7441 (FIG. 26B).

[1] = system: HBB locus in CD34-expressing LT-HSPCs; test: HDR insertion of AAV GFP donor at HBB locus (GFP fluorescence); type: cell-based, human; details: for HDR efficiency: 0.75 g mRNA encoding i53, 5 μM Nu7441, DM control mRNA, FIG. 6C
Method: Frozen CD34-expressing LT-HSPCs derived from plerixafor (i.e., Mozibil®)+GCSF-dual mobilized peripheral blood obtained from healthy human donors were purchased from a commercial vendor. LT-HSPCs were maintained in culture media comprised of the reagents shown in Table 4 and were incubated at 37° C., 5% carbon dioxide, 4% oxygen. […] 2×10^5 cells were edited with 3 g Cas9 and 3 g gRNA. The target gene sequence (including target sequence with PAM), R02 spacer sequence, and R02 sgRNA sequence are identified in Table 3.
The cells were transfected with a dsDNA homology donor encoding GFP under a SFFV promoter (SEQ ID NO: 60) that was delivered by AAV (SEQ ID NO: 56). […] The HDR efficiency was determined by measuring the level of GFP fluorescence in the cells following electroporation. To determine the effect of 53BP1 inhibition on HDR efficiency, the 53BP1 inhibitor i53 was introduced as an mRNA-encoded protein to the cells during electroporation with Cas9/gRNA RNP and AAV DNA that serves as a donor for homology directed repair.
The effect of 53BP1 inhibition on HDR efficiency was compared to other mRNA-encoded proteins that inhibit the NHEJ pathway. These included the proteins CYREN1 and CYREN2 that inhibit Ku70/80, a heterodimer that binds DNA blunt ends to prevent processing of 3′ single-stranded DNA tails necessary for HDR repair. Cells were electroporated with RNP, an AAV-GFP homology donor and mRNA encoding either i53 (mRNA ORF shown in SEQ ID NO: 69), CYREN1, or CYREN2.
The effect of treatment with i53 and Nu7441 was compared for improving efficiency of HDR repair of the HBB locus. Cells were treated with different doses of Nu7441 or with mRNA encoding i53 (ORF shown by SEQ ID NO: 69).

cKit mice = test: Engraftment (percent chimerism) of edited human LT-HSPCs in irradiated mice; type: in vivo; details: for chimerism in bone marrow: FIG. 24B
Method: The cells were administered by intravenous injection to cKit mice at 2 days following electroporation. Recipient mice were treated with sublethal irradiation (100 cGy) at 1 day prior to administration of LT-HSPCs to eliminate hematopoietic cells in the bone marrow and enable engraftment of the donor cells. Animals were evaluated for presence of human hematopoietic cells in peripheral blood at 8 and 16 weeks following LT-HSPC administration. The bone marrow was also evaluated for engraftment and maintenance of the HBB gene-edit at 16 weeks following LT-HSPC administration.
Presence of human hematopoietic cells was measured by flow cytometry in mouse blood or bone marrow samples. Cells were gated on singlet, live cells. Mouse and human CD45-expressing hematopoietic cells were distinguished by antibodies targeting mouse or human CD45. Engraftment was measured as percent chimerism which was defined as the quantity of human CD45 positive cells divided by the total number of CD45 positive cells (e.g., human and mouse CD45 expressing cells combined). The lineage of human CD45 positive cells was determined using markers for CD19 (e.g., B cells), CD3 (e.g., T cells), CD33 (e.g., myeloid cells), and CD34 (hematopoietic stem/progenitor cells (HSPCs)).
Human LT-HSPCs were administered to mice following electroporation with Cas9/gRNA and AAV encoding a sickle cell mutation (E7V) as shown in FIG. 21. LT-HSPCs were mobilized from healthy donors using plerixafor. LT-HSPCs were gene-edited following 2 days in culture. […] 1×10^6 cells were edited with 20 g Cas9 and 20 g gRNA.
A dose of 0.5×10^6 cells was administered by intravenous injection to cKit mice at 2 days following electroporation. Recipient mice were treated with sublethal irradiation (100 cGy) at 1 day prior to administration of LT-HSPCs to eliminate hematopoietic cells in the bone marrow and enable engraftment of the donor cells. Animals were evaluated for presence of human hematopoietic cells in peripheral blood at 8 and 16 weeks following LT-HSPC administration. The bone marrow was also evaluated for engraftment and maintenance of the HBB gene-edit at 16 weeks following LT-HSPC administration.

[2] = system: HBB gene locus in CD34-expressing LT-HSPCs; test: HDR efficiency at HBB gene with R02 RNP+AAV.307 and DNA-PK inhibitors, NGS; type: cell-based, human; details: 1 μg i53 mRNA; R02 RNP+AAV.307
Method: Editing was performed as described above. However, the cells were electroporated with AAV.307 administered 1 hour prior to electroporation at a dose of 10,000 MOI. The cells were electroporated with compound 296 at a concentration ranging from 0.005 μM to 10 μM, with compound 984 at a concentration ranging from 0.005 μM to […], or with 1 μg i53 mRNA. Negative control cells were electroporated with RNP+AAV only or RNP only.
Edited cells were evaluated for viability as described above, and for incorporation of gene-edits at 2 days post-electroporation. […] The frequency of INDELs induced at the R02 cut site was also evaluated by NGS analysis.

Molecule	levels of gene-editing in the HBB locus in bone marrow (HBB locus)	HDR frequency in bone marrow, fold higher than AAV+RNP alone (HBB locus; AAV.307, FIG. 19)	incorporation of the gene edit by HDR in bone marrow (HBB locus; AAV.307, i53, FIG. 19)	HDR efficiency [1]	HDR efficiency vs RNP+AAV-only ([1]; i53 mRNA 0.5, 1, 2 g (FIG. 6A) or 0.3 g, 1 g (FIG. 6B), CYREN1 or CYREN2 mRNA, any dose of XL413 (data not shown))	HDR efficiency, fold increase over RNP+AAV-only ([1]; mRNA encoding i53, AAV GFP donor 5,000 MOI, FIG. 6A)	percent chimerism in bone marrow (cKit mice; 16 weeks, 0.25×10^6 LT-HSPCs, AAV.307, FIG. 16)	chimerism in bone marrow (cKit mice; 16 weeks, AAV.304)	levels of chimerism in blood (cKit mice; blood 8 and 16 weeks, 0.5×10^6 cells, AAV.304, FIG. 23B)	level of HDR repair [2]	chimerism in blood, fold increase over RNP+AAV alone (cKit mice; 8 and 16 weeks, 5 μM Nu7441, FIG. 23B)	chimerism in blood (cKit mice; both 8 and 16 weeks, 5 μM Nu7441, AAV.304, FIG. 23B)
i53: polypeptide inhibitor of 53BP1 (SEQ ID NO: 70), delivered as mRNA (ORF SEQ ID NO: 69)	substantially higher than AAV+RNP alone	1.8 fold	65%	comparable increase in HDR efficiency	improved HDR efficiency; also recorded: increased HDR efficiency	approximately 1.3 fold	no further decrease in chimerism	comparable to RNP+AAV alone	comparable to RNP+AAV alone	59%	–	–
O=c1cc(N2CCOCC2)oc2c(-c3cccc4c3sc3ccccc34)cccc12 [Nu7441]	comparable to AAV+RNP alone	–	–	comparable increase in HDR efficiency	–	–	–	higher than RNP+AAV alone	–	–	2.5 fold	approximately 25%
